# Data: ChEMBL document CHEMBL1201862, “PubChem BioAssay data set” (2004)
# Active and inactive are the calls of the source.
# Columns and labels:
# [1] = MC4R antagonists, dose response, counter-screen for LGR2 antagonist project, cell-based, plate reader, cherry pick (AID 743444); type: functional;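 also: transfected HEK 293 cells stimulated with alpha-MSH peptide; potency of inhibitors of the alpha-MSH evoked signal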
# [2] = biological target: T1, Orexin receptor type 2 (Homo sapiens, UniProt O43614); assay: Counterscreen assay for antagonists of the orexin 1 receptor (OX1R; HCRTR1): Fluorescence-based cell-based dose response assay for antagonists of the orexin 2 receptor (OX2R; HCRTR2), run by assay provider.; type: functional
# [3] = (§1) Counterscreen for antagonists of the orexin 1 receptor (OX1R; HCRTR1): Fluorescence-based cell-based high throughput dose response assay to identify antagonists of the parental CHO cell line. [Related pubchem assays (depositor defined):AID434989, AID435008, AID463079, AID485270, AID492963, AID492964, AID492965, AID493232, AID504699, AID504701]; type: functional
# [4] = test system: BJ; assay: cytotoxicity toward Ras-transformed BJeLR fibroblasts, dose response, cell-based, alamar blue fluorescence, cherrypicked samples (AID 2631); type: functional; details: Homo sapiens;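 also: confirmatory dose-response assay in RAS-dependent BJ fibroblasts engineered with TERT, LT and ST, with cytotoxicity read by fluorescence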
# [5] = test system: BJ; assay: cytotoxicity toward BJ-TERT-LT-ST fibroblasts, dose response, cell-based, RAS-independent, luminescence (AID 1935); type: functional; details: Homo sapiens;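 also: BJ fibroblasts immortalized with TERT plus LT and ST oncogenes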
# [6] = biological target: T2, Orexin/Hypocretin receptor type 1 (Homo sapiens, UniProt O43613); assay: Homogeneous Time Resolved Fluorescence (HTRF)-based cell-based high throughput dose response assay for antagonists of the orexin 1 receptor (OX1R; HCRTR1). [Related pubchem assays (depositor defined):AID434989, AID435008, AID463079, AID485270, AID492963, AID492964, AID492965, AID493232, AID504717, AID504718]; type: functional
# [7] = test system: BJ; assay: cytotoxicity toward BJ-TERT fibroblasts, dose response, cell-based, RAS-independent, luminescence (AID 1933); type: functional; details: Homo sapiens
# [8] = Luminescence Cell-Based Dose Confirmation HTS to Identify Inhibitors of Platelet Dense Granule Release. [Related pubchem assays: 1663 (Primary HTS), 1678 (Summary of Project)]; type: functional
# [9] = biological target: T3, Oxysterols receptor LXR-beta (Homo sapiens, UniProt P55055); type: functional, cell-based;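 also: Cell-based luminescence dose-response assay of agonist activity at LXR, run as a confirmatory counterscreen to a daf-12 agonist screen; HEK293 cells with Gal4-LXR fusion and GAL4-driven luciferase reporter; agonist potency from rising luciferase signal of a Gal4-LXR reporter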
# T3 sequence (P55055 whole entry): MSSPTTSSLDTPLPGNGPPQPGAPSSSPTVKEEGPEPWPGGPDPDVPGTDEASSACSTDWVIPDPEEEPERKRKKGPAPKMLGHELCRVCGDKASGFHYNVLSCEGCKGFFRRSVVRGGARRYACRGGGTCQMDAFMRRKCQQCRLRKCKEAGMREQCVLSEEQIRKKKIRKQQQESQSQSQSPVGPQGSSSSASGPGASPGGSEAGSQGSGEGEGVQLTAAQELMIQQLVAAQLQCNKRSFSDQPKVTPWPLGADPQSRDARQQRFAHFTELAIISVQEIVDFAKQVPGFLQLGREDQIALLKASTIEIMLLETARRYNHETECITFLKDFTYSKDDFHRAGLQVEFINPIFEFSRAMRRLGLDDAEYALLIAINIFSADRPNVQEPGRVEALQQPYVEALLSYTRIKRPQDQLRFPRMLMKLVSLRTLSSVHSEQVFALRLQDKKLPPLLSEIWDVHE
# [10] = HepG2 cell cytotoxicity, dose response, cytotoxicity control, plate reader, cherry-pick, antagonist series (AID 743416); type: functional, cell-based
# [11] = A549 cell cytotoxicity, dose response, cytotoxicity control, plate reader, cherry-pick, antagonist series (AID 743412); type: functional, cell-based
# [12] = test system: BJ; assay: cells; type: functional, cell-based; details: Homo sapiens
# [13] = cells
# [14] = biological target: T4, Protein skinhead-1 (Caenorhabditis elegans, UniProt P34707); type: functional
# T4 sequence (P34707 whole entry): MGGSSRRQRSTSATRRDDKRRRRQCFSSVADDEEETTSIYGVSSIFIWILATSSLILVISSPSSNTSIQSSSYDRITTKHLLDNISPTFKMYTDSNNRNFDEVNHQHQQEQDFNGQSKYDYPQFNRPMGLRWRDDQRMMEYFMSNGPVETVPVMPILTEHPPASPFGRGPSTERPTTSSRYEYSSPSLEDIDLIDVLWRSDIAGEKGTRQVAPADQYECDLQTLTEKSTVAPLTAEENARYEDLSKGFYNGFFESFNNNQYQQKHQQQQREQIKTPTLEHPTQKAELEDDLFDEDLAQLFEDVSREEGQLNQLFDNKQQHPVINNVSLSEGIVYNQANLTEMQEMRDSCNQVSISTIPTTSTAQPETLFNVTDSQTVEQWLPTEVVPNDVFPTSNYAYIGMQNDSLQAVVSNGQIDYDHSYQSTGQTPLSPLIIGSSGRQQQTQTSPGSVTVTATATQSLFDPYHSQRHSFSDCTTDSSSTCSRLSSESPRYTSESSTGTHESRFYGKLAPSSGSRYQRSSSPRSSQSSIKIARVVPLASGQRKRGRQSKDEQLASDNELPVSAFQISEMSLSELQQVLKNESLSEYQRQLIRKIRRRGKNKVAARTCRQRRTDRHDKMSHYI
# [15] = biological target: T1, Orexin receptor type 2; assay: Counterscreen assay for antagonists of the orexin 1 receptor (OX1R; HCRTR1): Homogeneous Time Resolved Fluorescence (HTRF)-based cell-based dose response assay for antagonists of the orexin 2 receptor (OX2R; HCRTR2), run by assay provider.; type: functional
# [16] = test system: CHO-K1; assay: as §1, with “Homogeneous time resolved fluorescence (HTRF)-based” for “Fluorescence-based”, “cell-based” for “cell-based high throughput”, “CHO-K1” for “CHO”; type: functional; details: Cricetulus griseus;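 also: potency for inhibition of ATP-stimulated IP1 production as antagonists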
# [17] = biological target: Luciferin 4-monooxygenase (Photinus pyralis, UniProt P08659); assay: firefly luciferase enzyme inhibitors, dose response, biochemical, luminescence (AID 1891)
# [18] = HEK293 cell cytotoxicity, dose response, cytotoxicity control, plate reader, cherry-picked samples (AID 743446); type: functional, cell-based
# [19] = cytotoxicity toward DRD oncogenic fibroblasts, dose response, cell-based, non-viral oncogenic, luminescence (AID 1934); type: functional; details: Homo sapiens
# [20] = biological target: T2, Orexin/Hypocretin receptor type 1; assay: Fluorescence-based cell-based high throughput dose response assay for antagonists of the orexin 1 receptor (OX1R; HCRTR1). [Related pubchem assays (depositor defined):AID434989, AID435008, AID463079, AID485270, AID492963, AID492964, AID492965, AID493232, AID504717, AID504718]; type: functional
# [21] = A Cell Based Secondary Assay To Explore Cytotoxicity of Compounds that Sensitize Mycobacterium Tuberculosis to Beta-Lactam Antibiotics.; type: functional
# [22] = LGR2 antagonists, dose response, cell-based, HEK293, CRE-luciferase reporter, cherry pick, set 2 (AID 743343); type: functional;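 also: transfected cells were stimulated with diluted bursicon conditioned medium after compound addition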
# [23] = biological target: T5, Neuropeptides B/W receptor type 1 (Homo sapiens, UniProt P48145); assay: GPR7 antagonist potency, late-stage follow-up, cell-based, fluorescence, dose response, set 6 (AID 588583); type: functional
# T5 sequence (P48145 whole entry): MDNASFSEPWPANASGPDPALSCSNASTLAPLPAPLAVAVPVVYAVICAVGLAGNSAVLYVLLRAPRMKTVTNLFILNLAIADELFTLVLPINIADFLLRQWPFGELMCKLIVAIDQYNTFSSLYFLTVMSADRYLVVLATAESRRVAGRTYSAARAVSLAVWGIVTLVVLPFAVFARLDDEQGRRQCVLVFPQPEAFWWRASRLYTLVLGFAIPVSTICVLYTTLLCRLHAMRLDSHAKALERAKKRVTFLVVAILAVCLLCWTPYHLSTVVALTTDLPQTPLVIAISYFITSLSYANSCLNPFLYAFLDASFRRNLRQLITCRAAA
# [24] = biological target: Melanin-concentrating hormone receptor 1 (Homo sapiens, UniProt Q99705); assay: Late-stage fluorescence-based counterscreen for antagonists of the G-protein coupled receptor 7 (GPR7): cell-based dose response assay to identify antagonists of the melanin-concentrating hormone receptor 1 (MCHR1) Set 6.; type: functional
# [25] = biological target: T6, Fatty acid synthase (Homo sapiens, UniProt P49327); assay: FAS thioesterase domain inhibitors, dose response, biochemical, kinetic fluorescence intensity (AID 624326); type: functional;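 also: rate of fluorescence rise from hydrolysis of a fluorogenic O-methyl fluorescein ester substrate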
# [26] = biological target: Multidrug resistance protein CDR1 (Candida albicans, UniProt P43071); assay: CaCDR1 efflux pump inhibitors in yeast, dose response, S. cerevisiae AD1-8u, singleplex, Cherry Pick1 hits (AID 588606); type: functional
# [27] = biological target: T6, Fatty acid synthase; assay: FAS thioesterase domain inhibitors, dose response, biochemical, endpoint fluorescence intensity, uHTS hits (AID 624327); type: functional;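 also: fluorescence from hydrolysis of an O-methyl fluorescein acyl ester substrate by the enzyme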
# T2 sequence (O43613 whole entry): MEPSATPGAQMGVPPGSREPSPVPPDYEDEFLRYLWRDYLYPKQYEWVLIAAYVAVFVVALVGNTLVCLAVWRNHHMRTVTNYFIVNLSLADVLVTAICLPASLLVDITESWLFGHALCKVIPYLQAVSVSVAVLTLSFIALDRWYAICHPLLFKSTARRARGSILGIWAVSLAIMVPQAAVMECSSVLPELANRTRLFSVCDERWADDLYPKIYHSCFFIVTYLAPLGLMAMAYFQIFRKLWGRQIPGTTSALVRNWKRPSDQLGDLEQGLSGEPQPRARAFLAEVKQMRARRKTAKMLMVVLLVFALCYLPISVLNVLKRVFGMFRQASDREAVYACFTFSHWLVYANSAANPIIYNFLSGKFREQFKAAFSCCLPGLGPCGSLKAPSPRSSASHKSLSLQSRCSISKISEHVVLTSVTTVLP
# T1 sequence (O43614 whole entry): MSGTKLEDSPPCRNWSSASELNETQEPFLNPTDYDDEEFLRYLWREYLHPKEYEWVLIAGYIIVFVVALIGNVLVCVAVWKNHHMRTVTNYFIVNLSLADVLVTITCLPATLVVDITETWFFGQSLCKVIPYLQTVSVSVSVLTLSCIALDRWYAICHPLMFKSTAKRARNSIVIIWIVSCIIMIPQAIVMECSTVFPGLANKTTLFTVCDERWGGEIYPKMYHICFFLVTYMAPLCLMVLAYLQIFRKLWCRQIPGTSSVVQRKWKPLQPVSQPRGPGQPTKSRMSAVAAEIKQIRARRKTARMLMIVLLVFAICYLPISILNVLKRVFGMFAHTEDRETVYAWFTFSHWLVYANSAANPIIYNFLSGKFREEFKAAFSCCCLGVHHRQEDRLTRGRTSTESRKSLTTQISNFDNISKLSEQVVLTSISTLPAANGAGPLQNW
# T6 sequence (P49327 whole entry, the tested form may be a part): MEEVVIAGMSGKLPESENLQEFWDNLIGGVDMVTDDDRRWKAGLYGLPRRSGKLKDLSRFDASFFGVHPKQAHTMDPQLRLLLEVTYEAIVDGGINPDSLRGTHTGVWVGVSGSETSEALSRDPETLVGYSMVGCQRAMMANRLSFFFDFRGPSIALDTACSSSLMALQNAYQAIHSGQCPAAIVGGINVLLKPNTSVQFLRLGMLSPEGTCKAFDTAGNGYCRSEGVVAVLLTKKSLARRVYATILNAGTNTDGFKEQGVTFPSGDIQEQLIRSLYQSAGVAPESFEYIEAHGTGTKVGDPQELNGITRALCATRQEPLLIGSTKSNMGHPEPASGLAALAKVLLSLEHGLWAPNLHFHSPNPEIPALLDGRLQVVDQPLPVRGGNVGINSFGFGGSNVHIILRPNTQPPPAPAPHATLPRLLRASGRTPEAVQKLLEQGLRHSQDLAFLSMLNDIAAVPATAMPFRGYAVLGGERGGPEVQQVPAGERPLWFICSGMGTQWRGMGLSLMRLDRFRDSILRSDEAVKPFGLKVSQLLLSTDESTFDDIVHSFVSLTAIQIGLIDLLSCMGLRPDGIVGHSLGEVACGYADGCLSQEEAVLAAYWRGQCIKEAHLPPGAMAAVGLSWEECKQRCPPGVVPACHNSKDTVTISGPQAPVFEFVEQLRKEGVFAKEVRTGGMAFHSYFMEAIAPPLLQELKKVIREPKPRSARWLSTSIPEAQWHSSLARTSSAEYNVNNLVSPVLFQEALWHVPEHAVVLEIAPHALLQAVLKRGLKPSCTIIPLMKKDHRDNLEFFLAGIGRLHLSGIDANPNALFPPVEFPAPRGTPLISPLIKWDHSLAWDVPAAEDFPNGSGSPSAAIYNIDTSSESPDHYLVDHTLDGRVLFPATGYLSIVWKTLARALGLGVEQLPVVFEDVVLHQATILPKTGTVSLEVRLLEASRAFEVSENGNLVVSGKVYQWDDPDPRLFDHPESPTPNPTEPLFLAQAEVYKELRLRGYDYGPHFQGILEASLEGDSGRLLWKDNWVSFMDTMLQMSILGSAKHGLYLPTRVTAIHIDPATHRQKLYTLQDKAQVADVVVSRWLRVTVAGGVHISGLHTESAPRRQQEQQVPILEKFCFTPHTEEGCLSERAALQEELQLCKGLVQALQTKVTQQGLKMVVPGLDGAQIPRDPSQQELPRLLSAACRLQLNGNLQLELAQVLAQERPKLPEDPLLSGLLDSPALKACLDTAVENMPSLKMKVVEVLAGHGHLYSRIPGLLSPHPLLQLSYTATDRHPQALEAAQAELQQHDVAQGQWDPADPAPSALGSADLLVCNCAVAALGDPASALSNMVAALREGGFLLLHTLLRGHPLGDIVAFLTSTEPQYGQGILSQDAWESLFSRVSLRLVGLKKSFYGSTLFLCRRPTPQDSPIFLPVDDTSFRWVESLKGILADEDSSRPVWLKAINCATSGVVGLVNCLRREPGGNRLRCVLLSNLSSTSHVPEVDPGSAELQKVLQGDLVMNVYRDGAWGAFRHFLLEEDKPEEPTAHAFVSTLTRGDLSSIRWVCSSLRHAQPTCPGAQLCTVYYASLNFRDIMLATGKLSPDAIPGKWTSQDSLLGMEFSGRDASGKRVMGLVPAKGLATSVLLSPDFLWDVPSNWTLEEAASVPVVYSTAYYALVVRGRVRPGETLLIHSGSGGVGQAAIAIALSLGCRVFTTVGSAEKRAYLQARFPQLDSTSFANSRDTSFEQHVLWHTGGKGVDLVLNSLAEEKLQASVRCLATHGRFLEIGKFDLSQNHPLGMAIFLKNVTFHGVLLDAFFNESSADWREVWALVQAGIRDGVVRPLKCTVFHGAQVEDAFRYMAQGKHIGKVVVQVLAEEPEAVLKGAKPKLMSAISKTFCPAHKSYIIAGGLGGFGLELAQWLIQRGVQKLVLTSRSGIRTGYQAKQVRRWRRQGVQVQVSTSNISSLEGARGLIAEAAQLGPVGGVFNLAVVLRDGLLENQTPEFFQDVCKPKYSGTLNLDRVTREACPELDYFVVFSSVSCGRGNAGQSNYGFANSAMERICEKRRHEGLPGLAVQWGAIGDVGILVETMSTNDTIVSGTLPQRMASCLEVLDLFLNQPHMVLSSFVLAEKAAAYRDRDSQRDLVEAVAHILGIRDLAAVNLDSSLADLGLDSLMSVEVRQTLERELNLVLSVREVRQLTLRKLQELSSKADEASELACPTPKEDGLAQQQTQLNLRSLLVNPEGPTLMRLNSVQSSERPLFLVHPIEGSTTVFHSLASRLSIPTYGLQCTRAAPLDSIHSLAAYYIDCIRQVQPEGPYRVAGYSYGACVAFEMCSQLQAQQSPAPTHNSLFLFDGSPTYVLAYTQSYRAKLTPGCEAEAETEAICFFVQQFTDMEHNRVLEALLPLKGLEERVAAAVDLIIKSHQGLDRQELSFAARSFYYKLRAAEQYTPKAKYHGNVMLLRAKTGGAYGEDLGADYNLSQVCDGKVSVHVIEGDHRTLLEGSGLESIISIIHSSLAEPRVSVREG
# Chain of Luciferin 4-monooxygenase (P08659 whole entry): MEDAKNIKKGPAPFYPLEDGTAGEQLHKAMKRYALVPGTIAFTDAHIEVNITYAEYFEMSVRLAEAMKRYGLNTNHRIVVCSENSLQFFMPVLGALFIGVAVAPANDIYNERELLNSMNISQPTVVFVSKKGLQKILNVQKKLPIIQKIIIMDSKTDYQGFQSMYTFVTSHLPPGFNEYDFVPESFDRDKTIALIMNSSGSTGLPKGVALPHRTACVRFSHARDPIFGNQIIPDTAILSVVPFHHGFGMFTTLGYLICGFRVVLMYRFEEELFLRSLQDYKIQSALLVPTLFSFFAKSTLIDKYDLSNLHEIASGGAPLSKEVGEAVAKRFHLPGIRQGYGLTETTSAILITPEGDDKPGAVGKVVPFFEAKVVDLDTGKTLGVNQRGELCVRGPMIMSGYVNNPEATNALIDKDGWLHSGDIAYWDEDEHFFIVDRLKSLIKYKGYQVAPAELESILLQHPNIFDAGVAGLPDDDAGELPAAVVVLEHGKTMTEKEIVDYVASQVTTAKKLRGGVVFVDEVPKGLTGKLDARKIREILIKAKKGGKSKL
# Chain of Melanin-concentrating hormone receptor 1 (Q99705 whole entry, the tested form may be a part): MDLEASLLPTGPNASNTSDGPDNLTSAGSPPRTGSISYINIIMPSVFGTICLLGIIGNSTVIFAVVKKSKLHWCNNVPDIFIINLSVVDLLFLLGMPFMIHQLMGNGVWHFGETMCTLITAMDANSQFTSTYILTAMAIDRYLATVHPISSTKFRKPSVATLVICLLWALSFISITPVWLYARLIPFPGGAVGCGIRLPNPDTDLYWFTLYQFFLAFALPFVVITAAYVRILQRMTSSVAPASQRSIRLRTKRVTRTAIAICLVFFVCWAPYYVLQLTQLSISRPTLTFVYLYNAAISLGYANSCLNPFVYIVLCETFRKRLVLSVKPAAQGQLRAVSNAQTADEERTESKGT
smiles,measurement,setting,value
c1ccc2nc(-c3nc4ccccc4o3)ccc2c1,AC50,[1],2.72 µM (active)
same,IC50,[2],41.7 µM (inactive)
same,IC50,[3],> 49.8 µM (inactive)
same,EC50,[4],> 133 µM (inactive)
same,EC50,[5],> 150 µM (inconclusive)
same,IC50,[6],0.954 µM (active)
same,EC50,[7],10.5 µM (active)
same,EC50,[8],4.38 µM (active)
same,EC50,[9],> 67.5 µM (inactive)
same,AC50,[10],> 52 µM (inactive)
same,AC50,[11],22.5 µM (active)
same,EC50,[12],8.74 µM (active)
same,EC50,[13],> 67.5 µM (inactive)
same,IC50,[14],9.69 µM (active)
same,IC50,[15],0.006 µM (active)
same,IC50,[16],> 66.2 µM (inactive)
same,EC50,[17],1.36 µM (active)
same,AC50,[18],11.1 µM (active)
same,EC50,[19],7.36 µM (active)
same,IC50,[20],5.46 µM (active)
same,CC50,[21],> 40 µM (active)
same,AC50,[22],3.53 µM (active)
N#CC(c1ccccc1)c1c(Cl)cnn(C2c3ccccc3-c3ccccc32)c1=O (configuration not stated),IC50,[23],2.22 µM (active)
same,IC50,[24],2.22 µM (active)
COc1ccc(NC(=O)Nc2cccc3c2O[C@H](CN(C)C(=O)NC2CCCCC2)[C@@H](C)CN([C@H](C)CO)C3=O)cc1,IC50,[25],3.35 µM (active)
same,EC50,[26],8.86 µM (active)
same,IC50,[27],3.56 µM (active)
